From the supplement of paper PMC7840683
Where a name gives a salt, the structure may show the parent alone.

Tested on: HepaRG
Assay: LDH release cytotoxicity, % of total lysis control; higher = more cytotoxic
Conditions: 48 h
Summary of the method: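 Single-lot HepaRG cells in collagen I-coated 96-well plates were treated for 48 h in serum-free induction medium containing 0.5% DMSO with test chemicals in eight-point half-log series up to 100 µM. For total lysis, wells received 0.1% Triton X. LDH in 50 µL spent medium was assayed by resorufin fluorescence with CytoTox-ONE. Percent cytotoxicity was normalized to the on-plate vehicle and total lysis controls, with duplicates averaged.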

CC(C)C1(C)N=C(c2nc3ccccc3cc2C(=O)O)NC1=O (configuration not stated) [Imazaquin]
Conditions	LDH release cytotoxicity [%]
0.03162 µM	-3.4
0.1 µM	-3.18
0.3162278 µM	-1.28
1 µM	-2.88
3.16228 µM	-0.995
10 µM	-0.807
31.6228 µM	-0.68
100 µM	2.17

CCc1cnc(C2=NC(C)(C(C)C)C(=O)N2)c(C(=O)O)c1 (configuration not stated) [Imazethapyr]
Conditions	LDH release cytotoxicity [%]
0.03162 µM	-0.727
0.1 µM	-1.781
0.3162278 µM	-1.13
1 µM	-1.33
3.16228 µM	-1.54
10 µM	-1.13
31.6228 µM	-0.237
100 µM	0.45

O=[N+]([O-])/N=C1\NCCN1Cc1ccc(Cl)nc1 [Imidacloprid]
Conditions	LDH release cytotoxicity [%]
0.03162 µM	-2.56
0.1 µM	-1.08
0.3162278 µM	-1.14
1 µM	-1.66
3.16228 µM	-1.89
10 µM	-0.694
31.6228 µM	-0.538
100 µM	1.58

[As]#[In] [Indium arsenide]
Conditions	LDH release cytotoxicity [%]
0.03162 µM	0.449
0.1 µM	-0.971
0.3162278 µM	0.268
1 µM	-0.269
3.16228 µM	0.376
10 µM	0.749
31.6228 µM	0.141
100 µM	1.11

COC(=O)N(C(=O)N1COC2(C(=O)OC)Cc3cc(Cl)ccc3C2=N1)c1ccc(OC(F)(F)F)cc1 (configuration not stated) [Indoxacarb]
Conditions	LDH release cytotoxicity [%]
0.0253 µM	-0.813
0.08 µM	0.513
0.252982 µM	-1.47
0.8 µM	-0.957
2.52982 µM	-0.16
8 µM	-0.511
25.2982 µM	0.453
80 µM	14.2

O=C(NC(Cc1ccccc1)C(O)C(=O)N1CC(O)C(O)C1)c1cc2cc(Cl)ccc2[nH]1 (configuration not stated) [Ingliforib]
Conditions	LDH release cytotoxicity [%]
0.03162 µM	-1.12
0.1 µM	-2
0.3162278 µM	-1.41
1 µM	-0.89
3.16228 µM	-0.718
10 µM	-0.896
31.6228 µM	-1.06
100 µM	8.47

COC(=O)c1ccc(I)cc1S(=O)(=O)NC(=O)Nc1nc(C)nc(OC)n1 [Iodosulfuron-methyl-sodium]
Conditions	LDH release cytotoxicity [%]
0.03162 µM	-1.49
0.1 µM	-0.389
0.3162278 µM	-1.21
1 µM	-0.477
3.16228 µM	-0.16
10 µM	0.897
31.6228 µM	0.0334
100 µM	2.49

CC(C)NC(=O)N1CC(=O)N(c2cc(Cl)cc(Cl)c2)C1=O [Iprodione]
Conditions	LDH release cytotoxicity [%]
0.03162 µM	-0.45
0.1 µM	-1.34
0.3162278 µM	-0.949
1 µM	-1.27
3.16228 µM	-1.29
10 µM	-0.662
31.6228 µM	1.78
100 µM	4.73

CCOP(=S)(OCC)Oc1nc(Cl)n(C(C)C)n1 [Isazofos]
Conditions	LDH release cytotoxicity [%]
0.031623 µM	0.0296
0.1 µM	-1.65
0.316228 µM	-2.1
1 µM	-2.59
3.16228 µM	-3.48
10 µM	-3
31.6228 µM	-3.67
100 µM	1.66

CC=Cc1ccc(O)c(OC)c1 [Isoeugenol]
Conditions	LDH release cytotoxicity [%]
0.03162 µM	-2.86
0.1 µM	-2.42
0.3162278 µM	-2.55
1 µM	-3.05
3.16228 µM	-2.354
10 µM	-2.16
31.6228 µM	-2.4
100 µM	-1.84

NNC(=O)c1ccncc1 [Isoniazid]
Conditions	LDH release cytotoxicity [%]
0.013914 µM	-1.4
0.044 µM	-0.0891
0.13914 µM	-1.34
0.44 µM	-1.05
1.3914 µM	-1.62
4.4 µM	-0.682
13.914 µM	-0.843
44 µM	-0.0914

C=CC(=O)OCCCCCC(C)C [Isooctyl acrylate]
Conditions	LDH release cytotoxicity [%]
0.03162 µM	-1
0.1 µM	-1.54
0.3162278 µM	-2.08
1 µM	-1.07
3.16228 µM	-1.61
10 µM	-1.55
31.6228 µM	-0.382
100 µM	0.567

CC(C)CCO [Isopentyl alcohol]
Conditions	LDH release cytotoxicity [%]
0.0317809 µM	-1.55
0.1005 µM	-1.43
0.317809 µM	-2.18
1.005 µM	-2.36
3.17809 µM	-1.495
10.05 µM	-1.51
31.7809 µM	-1.18
100.5 µM	-0.0999

CCCC(=O)OCCC(C)C [Isopentyl butyrate]
Conditions	LDH release cytotoxicity [%]
0.03162 µM	0.497
0.1 µM	-0.72
0.3162278 µM	-0.446
1 µM	-0.671
3.16228 µM	0.184
10 µM	0.168
31.6228 µM	0.438
100 µM	1.65

CC1(C)CC(N=C=O)CC(C)(CN=C=O)C1 (configuration not stated) [Isophorone diisocyanate]
Conditions	LDH release cytotoxicity [%]
0.03162 µM	-2.14
0.1 µM	-2.6
0.3162278 µM	-2.25
1 µM	-2.1
3.16228 µM	-1.35
10 µM	-1.724
31.6228 µM	-2.21
100 µM	0.405

CC1=CC(=O)CC(C)(C)C1 [Isophorone]
Conditions	LDH release cytotoxicity [%]
0.03162 µM	-0.205
0.1 µM	0.529
0.3162278 µM	-0.132
1 µM	-0.235
3.16228 µM	0.145
10 µM	1.04
31.6228 µM	0.514
100 µM	1.74

CCCN(CCC)c1c([N+](=O)[O-])cc(C(C)C)cc1[N+](=O)[O-] [Isopropalin]
Conditions	LDH release cytotoxicity [%]
0.03162 µM	-0.731
0.1 µM	-1.48
0.3162278 µM	-2.92
1 µM	-1.36
3.16228 µM	-1.98
10 µM	-1.28
31.6228 µM	-1.55
100 µM	-0.986

CC(C)[O-].CC(C)[O-].[O-]CCN(CCO)CCO.[O-]CCN(CCO)CCO.[Ti+4] [Isopropyl triethanolamine titanate]
Conditions	LDH release cytotoxicity [%]
0.03162 µM	-5.22
0.1 µM	-1.09
0.3162278 µM	-0.881
1 µM	-0.333
3.16228 µM	0.622
10 µM	0.156
31.6228 µM	0.0089
100 µM	0.6851

CC(C)NCC(O)c1ccc(O)c(O)c1 (configuration not stated) [Isoproterenol hydrochloride]
Conditions	LDH release cytotoxicity [%]
0.03162 µM	-1.33
0.1 µM	-0.922
0.3162278 µM	0.959
1 µM	2.34
3.16228 µM	2.16
10 µM	-0.0702
31.6228 µM	-1.75
100 µM	-1.61
